Measured values: ChEMBL document CHEMBL1240496, “Development of potent glucagon-like peptide-1 agonists with high enzyme stability via introduction of multiple lactam bridges” (J Med Chem, 2010)
Bridge positions count the residues as written; N and C are the ends. Peptide text beside a SMILES is read from it.

How the values were obtained:
[1] = target: T1, Glucagon-like peptide 1 receptor (Homo sapiens, UniProt P43220); assay: Activation of human GLP1 receptor expressed in HEK293 cells assessed as increase in cAMP accumulation relative to GLP1; assay type: functional, cell-based
T1 sequence (P43220 whole entry): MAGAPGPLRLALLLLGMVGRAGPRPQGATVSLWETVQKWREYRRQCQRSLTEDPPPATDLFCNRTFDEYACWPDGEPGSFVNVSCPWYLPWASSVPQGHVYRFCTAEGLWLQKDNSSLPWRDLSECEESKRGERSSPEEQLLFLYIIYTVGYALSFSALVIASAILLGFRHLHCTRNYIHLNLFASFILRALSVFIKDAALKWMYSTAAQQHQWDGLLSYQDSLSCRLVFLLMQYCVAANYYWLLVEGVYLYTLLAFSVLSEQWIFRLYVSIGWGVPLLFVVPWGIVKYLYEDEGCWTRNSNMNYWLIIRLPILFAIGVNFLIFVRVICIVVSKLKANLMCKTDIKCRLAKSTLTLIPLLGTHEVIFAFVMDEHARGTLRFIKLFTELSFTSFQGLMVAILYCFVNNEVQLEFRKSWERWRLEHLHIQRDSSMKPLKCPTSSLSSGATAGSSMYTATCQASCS

NEP 24.11 = assay: Chemical stability of the compound assessed as half life up to 24 hrs by HPLC analysis in presence of human recombinant NEP 24.11; assay type: physicochemical
[2] = target: T1, Glucagon-like peptide 1 receptor; assay: Activation of human GLP1 receptor expressed in HEK293 cells assessed as increase in cAMP accumulation; assay type: functional, cell-based
DPP4 = assay: Chemical stability of the compound assessed as half life up to 24 hrs by HPLC analysis in presence of human recombinant DPP4; assay type: physicochemical

`CC[C@H](C)[C@H](NC(=O)[C@H](Cc1ccccc1)NC(=O)[C@H](CCC(=O)O)NC(=O)[C@@H]1CCC(=O)NCCCC[C@H](NC(=O)[C@H](CCC(=O)O)NC(=O)[C@H](CC(C)C)NC(=O)[C@H](Cc2ccc(O)cc2)NC(=O)[C@H](CO)NC(=O)[C@H](CO)NC(=O)[C@@H](NC(=O)[C@H](CC(=O)O)NC(=O)[C@H](CO)NC(=O)[C@@H](NC(=O)[C@H](Cc2ccccc2)NC(=O)[C@@H](NC(=O)CNC(=O)[C@H](CCC(=O)O)NC(=O)[C@H](C)NC(=O)[C@@H](N)Cc2cnc[nH]2)[C@@H](C)O)[C@@H](C)O)C(C)C)C(=O)N[C@@H](CCC(N)=O)C(=O)N[C@@H](C)C(=O)N[C@@H](C)C(=O)N1)C(=O)N[C@H]1CCCCNC(=O)CC[C@@H](C(=O)NCC(=O)N[C@@H](CCCNC(=N)N)C(N)=O)NC(=O)[C@H](C(C)C)NC(=O)[C@H](CC(C)C)NC(=O)[C@H](Cc2c[nH]c3ccccc23)NC1=O` (H-HAEGTFTSDVSSYLEKQAAEEFIKWLVEGR-NH2; lactam 16-20, 24-28) was tested, and the Activity [1] was 210%, the half-life (NEP 24.11) was 1.2 h and the EC50 ([2]; read-out: EC50) was 2.2 nM. The half-life (DPP4) was 7.3 h.
`CC[C@H](C)[C@H](NC(=O)[C@H](Cc1ccccc1)NC(=O)[C@H](CCC(=O)O)NC(=O)[C@@H]1CCCCNC(=O)CC[C@H](NC(=O)[C@H](CCC(=O)O)NC(=O)[C@H](CC(C)C)NC(=O)[C@H](Cc2ccc(O)cc2)NC(=O)[C@H](CO)NC(=O)[C@H](CO)NC(=O)[C@@H](NC(=O)[C@H](CC(=O)O)NC(=O)[C@H](CO)NC(=O)[C@@H](NC(=O)[C@H](Cc2ccccc2)NC(=O)[C@@H](NC(=O)CNC(=O)[C@H](CCC(=O)O)NC(=O)[C@H](C)NC(=O)[C@@H](N)Cc2cnc[nH]2)[C@@H](C)O)[C@@H](C)O)C(C)C)C(=O)N[C@@H](CCC(N)=O)C(=O)N[C@@H](C)C(=O)N[C@@H](C)C(=O)N1)C(=O)N[C@H]1CCC(=O)NCCCC[C@@H](C(=O)NCC(=O)N[C@@H](CCCNC(=N)N)C(N)=O)NC(=O)[C@H](C(C)C)NC(=O)[C@H](CC(C)C)NC(=O)[C@H](Cc2c[nH]c3ccccc23)NC1=O` (H-HAEGTFTSDVSSYLEEQAAKEFIEWLVKGR-NH2; lactam 16-20, 24-28) gave an Activity [1] of 290%, a half-life (NEP 24.11) of 3.5 h and an EC50 ([2]; read-out: EC50) of 1.6 nM. The half-life (DPP4) was 6 h.
For `CC[C@H](C)[C@H](NC(=O)[C@H](Cc1ccccc1)NC(=O)[C@H](CCC(=O)O)NC(=O)[C@H](CCCCN)NC(=O)[C@H](C)NC(=O)[C@H](C)NC(=O)[C@H](CCC(N)=O)NC(=O)[C@@H]1CCC(=O)NCCCC[C@H](NC(=O)[C@H](CO)NC(=O)[C@@H](NC(=O)[C@H](CC(=O)O)NC(=O)[C@H](CO)NC(=O)[C@@H](NC(=O)[C@H](Cc2ccccc2)NC(=O)[C@@H](NC(=O)CNC(=O)[C@H](CCC(=O)O)NC(=O)[C@H](C)NC(=O)[C@@H](N)Cc2cnc[nH]2)[C@@H](C)O)[C@@H](C)O)C(C)C)C(=O)N[C@@H](Cc2ccc(O)cc2)C(=O)N[C@@H](CC(C)C)C(=O)N[C@@H](CCC(=O)O)C(=O)N1)C(=O)N[C@H]1CCCCNC(=O)CC[C@@H](C(=O)NCC(=O)N[C@@H](CCCNC(=N)N)C(N)=O)NC(=O)[C@H](C(C)C)NC(=O)[C@H](CC(C)C)NC(=O)[C@H](Cc2c[nH]c3ccccc23)NC1=O` (H-HAEGTFTSDVSKYLEEQAAKEFIKWLVEGR-NH2; lactam 12-16, 24-28), the Activity [1] was 460%, the half-life (NEP 24.11) was 18 h and the EC50 ([2]; read-out: EC50) was 1 nM. For the same molecule, the half-life (DPP4) was 4.1 h.
`CC[C@H](C)[C@H](NC(=O)[C@H](Cc1ccccc1)NC(=O)[C@H](CCC(=O)O)NC(=O)[C@H](CCCCN)NC(=O)[C@H](C)NC(=O)[C@H](C)NC(=O)[C@H](CCC(N)=O)NC(=O)CNC(=O)[C@@H]1CCCCNC(=O)CC[C@H](NC(=O)[C@H](CC(=O)O)NC(=O)[C@H](CO)NC(=O)[C@@H](NC(=O)[C@H](Cc2ccccc2)NC(=O)[C@@H](NC(=O)CNC(=O)[C@H](CCC(=O)O)NC(=O)[C@H](C)NC(=O)[C@@H](N)Cc2cnc[nH]2)[C@@H](C)O)[C@@H](C)O)C(=O)N[C@@H](CO)C(=O)N[C@@H](CO)C(=O)N[C@@H](Cc2ccc(O)cc2)C(=O)N1)C(=O)N[C@@H](C)C(=O)N[C@@H](Cc1c[nH]c2ccccc12)C(=O)N[C@@H](CC(C)C)C(=O)N[C@H](C(=O)N[C@@H](CCCCN)C(=O)NCC(=O)N[C@@H](CCCNC(=N)N)C(N)=O)C(C)C` (H-HAEGTFTSDESSYKGQAAKEFIAWLVKGR-NH2; lactam 10-14) gave an Activity [1] of 120%, a half-life (NEP 24.11) of 3.2 h and an EC50 ([2]; read-out: EC50) of 3.8 nM. The half-life (DPP4) was 1.8 h.
With `CC[C@H](C)[C@H](NC(=O)[C@H](Cc1ccccc1)NC(=O)[C@H](CCC(=O)O)NC(=O)[C@H](CCCCN)NC(=O)[C@H](C)NC(=O)[C@H](C)NC(=O)[C@H](CCC(N)=O)NC(=O)CNC(=O)[C@H](CCC(=O)O)NC(=O)[C@@H]1CCC(=O)NCCCC[C@H](NC(=O)[C@H](CC(=O)O)NC(=O)[C@H](CO)NC(=O)[C@@H](NC(=O)[C@H](Cc2ccccc2)NC(=O)[C@@H](NC(=O)CNC(=O)[C@H](CCC(=O)O)NC(=O)[C@H](C)NC(=O)[C@@H](N)Cc2cnc[nH]2)[C@@H](C)O)[C@@H](C)O)C(=O)N[C@@H](CO)C(=O)N[C@@H](CO)C(=O)N[C@@H](Cc2ccc(O)cc2)C(=O)N1)C(=O)N[C@H]1CCCCNC(=O)CC[C@@H](C(=O)NCC(=O)N[C@@H](CCCNC(=N)N)C(N)=O)NC(=O)[C@H](C(C)C)NC(=O)[C@H](CC(C)C)NC(=O)[C@H](Cc2c[nH]c3ccccc23)NC1=O` (H-HAEGTFTSDKSSYEEGQAAKEFIKWLVEGR-NH2; lactam 10-14, 24-28) the Activity [1] was 70%, the half-life (NEP 24.11) was 17 h and the EC50 ([2]; read-out: EC50) was 7 nM. The half-life (DPP4) was 2.9 h.
In the case of `CC[C@H](C)[C@H](NC(=O)[C@H](Cc1ccccc1)NC(=O)[C@H](CCC(=O)O)NC(=O)[C@H](CCCCN)NC(=O)[C@H](C)NC(=O)[C@H](C)NC(=O)[C@H](CCC(N)=O)NC(=O)CNC(=O)[C@H](CCC(=O)O)NC(=O)[C@H](CC(C)C)NC(=O)[C@H](Cc1ccc(O)cc1)NC(=O)[C@H](CO)NC(=O)[C@H](CO)NC(=O)[C@@H](NC(=O)[C@H](CC(=O)O)NC(=O)[C@H](CO)NC(=O)[C@@H](NC(=O)[C@H](Cc1ccccc1)NC(=O)[C@@H](NC(=O)CNC(=O)[C@H](CCC(=O)O)NC(=O)[C@H](C)NC(=O)[C@@H](N)Cc1cnc[nH]1)[C@@H](C)O)[C@@H](C)O)C(C)C)C(=O)N[C@H]1CCC(=O)NCCCC[C@@H](C(=O)NCC(=O)N[C@@H](CCCNC(=N)N)C(N)=O)NC(=O)[C@H](C(C)C)NC(=O)[C@H](CC(C)C)NC(=O)[C@H](Cc2c[nH]c3ccccc23)NC1=O`, the Activity [1] is reported as 90%, the half-life (NEP 24.11) is reported as 6.9 h and the EC50 ([2]; read-out: EC50) is reported as 5.3 nM. For the same molecule, the EC50 ([2]; read-out: pEC50 (converted)) was 2.51 nM and the half-life (DPP4) was 3.3 h.
